Measurements: publication PMC11931151, “Inhibition of carbohydrate digestive enzymes by a complementary essential oil blend: in silico and mixture design approaches” (Frontiers in Pharmacology, 2025)
In brackets after ≈: the same amount, converted by molar mass.

Target: T1, intestinal α-glucosidase
T1 construct: gene SI; called intestinal, sucrose as substrate (points to sucrase-isomaltase), but a commercial yeast enzyme cannot be excluded; docking model 2QMJ is human maltase-glucoamylase
Assay: sucrose hydrolysis, glucose oxidase-peroxidase, absorbance at […] nm
Assay type: biochemical
Conditions: phosphate pH 7.5, 37 °C, 20 min pre-incubation, positive control

- IC50: 59 ± 9 mg/L (≈ 91.4 µM)
Compound: C[C@H]1O[C@H](O[C@H]2[C@H](O)[C@@H](O)[C@@H](O[C@H]3[C@H](O)[C@@H](O)C(O)O[C@@H]3CO)O[C@@H]2CO)[C@H](O)[C@@H](O)[C@@H]1N[C@H]1C=C(CO)[C@@H](O)[C@H](O)[C@H]1O (stereo partly shown) [acarbose]
